Measured values from ChEMBL document CHEMBL3885881, “DrugMatrix”.

Organism: Rattus norvegicus
Assay: DrugMatrix - Regimen: Daily Repeat
Type: toxicity, organism-based, Sprague-Dawley
Design: regimen Daily Repeat, gender Male, age 6-8 weeks
Details: in vivo, sc, route subcutaneous, […]; for ABSOLUTE BASOPHIL / ABSOLUTE EOSINOPHIL / ABSOLUTE LYMPHOCYTE / ABSOLUTE MONOCYTE / ABSOLUTE SEGMENTED NEUTROPHIL / BASOPHIL / EOSINOPHIL / ERYTHROCYTE COUNT / HEMATOCRIT / HEMOGLOBIN / LEUKOCYTE COUNT / LYMPHOCYTE / MEAN CORPUSCULAR HEMOGLOBIN / MEAN CORPUSCULAR HEMOGLOBIN CONCENTRATION / MEAN CORPUSCULAR VOLUME / MONOCYTE / NEUTROPHIL / NUCLEATED RED BLOOD CELLS / PLATELET COUNT: tissue Blood; for ALANINE AMINOTRANSFERASE / ALBUMIN / ALKALINE PHOSPHATASE / ASPARTATE AMINOTRANSFERASE / BLOOD UREA NITROGEN / CARBON DIOXIDE / CHLORIDE / CHOLESTEROL / CREATINE PHOSPHOKINASE / CREATININE / GLUCOSE / LACTATE DEHYDROGENASE / LIPASE / PHOSPHORUS / POTASSIUM / SODIUM / TOTAL BILIRUBIN / TOTAL PROTEIN / URIC ACID: tissue Plasma
[1] = 2 mg/kg, 120 h, dose level Low, time 5 day
[2] = 17 mg/kg, 72 h, dose level High, time 3 day
[3] = 17 mg/kg, 120 h, dose level High, time 5 day

CCC(=O)O[C@]1(C(=O)CCl)[C@@H](C)C[C@H]2[C@@H]3CCC4=CC(=O)C=C[C@]4(C)[C@@]3(F)[C@@H](O)C[C@@]21C [CLOBETASOL PROPIONATE]
ABSOLUTE BASOPHIL [1]: 0 CELLS/uL
ABSOLUTE EOSINOPHIL [1]: 128.67 CELLS/uL
ABSOLUTE LYMPHOCYTE [1]: 583 CELLS/uL
ABSOLUTE MONOCYTE [1]: 17.33 CELLS/uL
ABSOLUTE SEGMENTED NEUTROPHIL [1]: 7437.67 CELLS/uL
BASOPHIL [1]: 0%
EOSINOPHIL [1]: 1.33%
ERYTHROCYTE COUNT [1]: 6.32 x10E6/uL
HEMATOCRIT [1]: 40.2%
HEMOGLOBIN [1]: 14.5 G/DL
LEUKOCYTE COUNT [1]: 8.17 x10E3/uL
LYMPHOCYTE [1]: 6.67%
MEAN CORPUSCULAR HEMOGLOBIN [1]: 23.07 pg
MEAN CORPUSCULAR HEMOGLOBIN CONCENTRATION [1]: 36.1 G/DL
MEAN CORPUSCULAR VOLUME [1]: 63.83 fL
MONOCYTE [1]: 0.33%
NEUTROPHIL [1]: 91.67%
NUCLEATED RED BLOOD CELLS [1]: 0 /100WBC
PLATELET COUNT [1]: 805.67 x10E3/uL
ALANINE AMINOTRANSFERASE [1]: 191.67 u/L
ALBUMIN [1]: 4.53 G/DL
ALKALINE PHOSPHATASE [1]: 392 u/L
ASPARTATE AMINOTRANSFERASE [1]: 342 u/L
BLOOD UREA NITROGEN [1]: 24.33 mg/dL
CARBON DIOXIDE [1]: 19.67 mmol/L
CHLORIDE [1]: 102.67 MEQ/L
CHOLESTEROL [1]: 160 mg/dL
CREATINE PHOSPHOKINASE [1]: 1604 u/L
CREATININE [1]: 0.28 mg/dL
GLUCOSE [1]: 604.67 mg/dL
LACTATE DEHYDROGENASE [1]: 516.33 u/L
LIPASE [1]: 10.33 u/L
PHOSPHORUS [1]: 11.93 mg/dL
POTASSIUM [1]: 4.7 MEQ/L
SODIUM [1]: 143.1 MEQ/L
TOTAL BILIRUBIN [1]: 0.7 mg/dL
TOTAL PROTEIN [1]: 6.67 G/DL
URIC ACID [1]: 0.9 mg/dL
ABSOLUTE BASOPHIL [2]: 0 CELLS/uL
ABSOLUTE EOSINOPHIL [2]: 24 CELLS/uL
ABSOLUTE LYMPHOCYTE [2]: 383 CELLS/uL
ABSOLUTE MONOCYTE [2]: 0 CELLS/uL
ABSOLUTE SEGMENTED NEUTROPHIL [2]: 2026.33 CELLS/uL
BASOPHIL [2]: 0%
EOSINOPHIL [2]: 1%
ERYTHROCYTE COUNT [2]: 5.77 x10E6/uL
HEMATOCRIT [2]: 36.77%
HEMOGLOBIN [2]: 13.07 G/DL
LEUKOCYTE COUNT [2]: 2.43 x10E3/uL
LYMPHOCYTE [2]: 15.67%
MEAN CORPUSCULAR HEMOGLOBIN [2]: 22.7 pg
MEAN CORPUSCULAR HEMOGLOBIN CONCENTRATION [2]: 35.57 G/DL
MEAN CORPUSCULAR VOLUME [2]: 63.9 fL
MONOCYTE [2]: 0%
NEUTROPHIL [2]: 83.33%
NUCLEATED RED BLOOD CELLS [2]: 0 /100WBC
PLATELET COUNT [2]: 1160 x10E3/uL
ALANINE AMINOTRANSFERASE [2]: 95 u/L
ALBUMIN [2]: 5.23 G/DL
ALKALINE PHOSPHATASE [2]: 460.67 u/L
ASPARTATE AMINOTRANSFERASE [2]: 128.33 u/L
BLOOD UREA NITROGEN [2]: 25.67 mg/dL
CARBON DIOXIDE [2]: 23.33 mmol/L
CHLORIDE [2]: 101.5 MEQ/L
CHOLESTEROL [2]: 162.67 mg/dL
CREATINE PHOSPHOKINASE [2]: 209.33 u/L
CREATININE [2]: 0.29 mg/dL
GLUCOSE [2]: 571.33 mg/dL
LACTATE DEHYDROGENASE [2]: 160.33 u/L
LIPASE [2]: 10.5 u/L
PHOSPHORUS [2]: 10 mg/dL
POTASSIUM [2]: 4.82 MEQ/L
SODIUM [2]: 141.8 MEQ/L
TOTAL BILIRUBIN [2]: 0.2 mg/dL
TOTAL PROTEIN [2]: 7.47 G/DL
URIC ACID [2]: 0.4 mg/dL
ABSOLUTE BASOPHIL [3]: 0 CELLS/uL
ABSOLUTE EOSINOPHIL [3]: 214.67 CELLS/uL
ABSOLUTE LYMPHOCYTE [3]: 340.67 CELLS/uL
ABSOLUTE MONOCYTE [3]: 76.33 CELLS/uL
ABSOLUTE SEGMENTED NEUTROPHIL [3]: 17401.67 CELLS/uL
BASOPHIL [3]: 0%
EOSINOPHIL [3]: 1%
ERYTHROCYTE COUNT [3]: 6.25 x10E6/uL
HEMATOCRIT [3]: 38.87%
HEMOGLOBIN [3]: 14.47 G/DL
LEUKOCYTE COUNT [3]: 18.03 x10E3/uL
LYMPHOCYTE [3]: 2%
MEAN CORPUSCULAR HEMOGLOBIN [3]: 23.17 pg
MEAN CORPUSCULAR HEMOGLOBIN CONCENTRATION [3]: 37.23 G/DL
MEAN CORPUSCULAR VOLUME [3]: 62.2 fL
MONOCYTE [3]: 0.33%
NEUTROPHIL [3]: 96.67%
NUCLEATED RED BLOOD CELLS [3]: 0 /100WBC
PLATELET COUNT [3]: 927.33 x10E3/uL
ALANINE AMINOTRANSFERASE [3]: 204.67 u/L
ALBUMIN [3]: 3.67 G/DL
ALKALINE PHOSPHATASE [3]: 242.33 u/L
ASPARTATE AMINOTRANSFERASE [3]: 271.33 u/L
BLOOD UREA NITROGEN [3]: 24.67 mg/dL
CARBON DIOXIDE [3]: 22 mmol/L
CHLORIDE [3]: 99.33 MEQ/L
CHOLESTEROL [3]: 122.33 mg/dL
CREATINE PHOSPHOKINASE [3]: 1143.67 u/L
CREATININE [3]: 0.2 mg/dL
GLUCOSE [3]: 515.33 mg/dL
LACTATE DEHYDROGENASE [3]: 439.33 u/L
LIPASE [3]: 9.67 u/L
PHOSPHORUS [3]: 12.77 mg/dL
POTASSIUM [3]: 4.7 MEQ/L
SODIUM [3]: 140.6 MEQ/L
TOTAL BILIRUBIN [3]: 0.73 mg/dL
TOTAL PROTEIN [3]: 5.7 G/DL
URIC ACID [3]: 1.07 mg/dL
